Test results reported in patent US20080051348A1, “TREATMENT OF INFECTIONS AND OTHER DISORDERS” (RegeneRx Biopharmaceuticals, Inc., priority 2002, published 2008).
In brackets after ≈: the same amount, converted by molar mass.

How the values were obtained:
Assay type in all cases: cell-based
[1] = tested on: Staphylococcus epidermidis (SE); assay: Antimicrobial assay, Example 2
Description: (§1) Antimicrobial assays were performed to assess peptide activity against Pseudomonas aeruginosa (PA), Staphylococcus aureus ([…]), and Staphylococcus epidermidis (SE).

[2] = tested on: Staphylococcus aureus; assay: Antimicrobial assay, Example 2
Description: as §1

[3] = tested on: Staphylococcus aureus; assay: Antimicrobial activity, Example 3
[4] = tested on: Pseudomonas aeruginosa (PA)
Description: as §1

[5] = tested on: Escherichia coli; assay: Antimicrobial activity, Example 3
[6] = tested on: Pseudomonas aeruginosa; assay: Antimicrobial assay, Example 1
Description: The purpose of this study was to study the antimicrobial activity of peptides against common pathogens in vitro. Antimicrobial assays were performed to assess peptide activity against Pseudomonas aeruginosa. […]

`CC[C@H](C)[C@H](NC(=O)[C@H](CCC(=O)O)NC(=O)[C@H](C)NC(=O)[C@H](CCSC)NC(=O)[C@H](CC(=O)O)NC(=O)[C@@H]1CCCN1C(=O)[C@H](CCCCN)NC(=O)[C@H](CC(=O)O)NC(=O)[C@H](CO)NC(C)=O)C(=O)N[C@@H](CCC(=O)O)C(=O)N[C@@H](CCCCN)C(=O)N[C@@H](Cc1ccccc1)C(=O)N[C@@H](CC(=O)O)C(=O)N[C@@H](CCCCN)C(=O)N[C@@H](CO)C(=O)N[C@@H](CCCCN)C(=O)N[C@@H](CC(C)C)C(=O)N[C@@H](CCCCN)C(=O)N[C@@H](CCCCN)C(=O)N[C@H](C(=O)N[C@@H](CCC(=O)O)C(=O)N[C@H](C(=O)N[C@@H](CCC(N)=O)C(=O)N[C@@H](CCC(=O)O)C(=O)N[C@@H](CCCCN)C(=O)N[C@@H](CC(N)=O)C(=O)N1CCC[C@H]1C(=O)N[C@@H](CC(C)C)C(=O)N1CCC[C@H]1C(=O)N[C@@H](CO)C(=O)N[C@@H](CCCCN)C(=O)N[C@@H](CCC(=O)O)C(=O)N[C@H](C(=O)N[C@H](C(=O)N[C@@H](CCC(=O)O)C(=O)N[C@@H](CCC(N)=O)C(=O)N[C@@H](CCC(=O)O)C(=O)N[C@@H](CCCCN)C(=O)N[C@@H](CCC(N)=O)C(=O)N[C@@H](C)C(=O)NCC(=O)N[C@@H](CCC(=O)O)C(=O)N[C@@H](CO)C(=O)O)[C@@H](C)CC)[C@@H](C)O)[C@@H](C)O)[C@@H](C)O` [Tβ4, thymosin β4] was tested, and the “effectiveness against staphylococcal strains” value [1] was “weakly effective”, the “effectiveness against staphylococcal strains” value [2] was “weakly effective” and the “concentrations showing antimicrobial activity” value [3] was 5-20 n mol/ml. The “concentrations showing increasingly dose-dependent activity” value [3] was 50-200 n mol/ml, the “EC50 against PA” value [4] was 18.1 ± 1.7 µg/mL (≈ 3.65 µM) and the “concentrations showing antimicrobial activity” value [5] was 5-20 n mol/ml. The “concentrations showing increasingly dose-dependent activity” value [5] was 50-200 n mol/ml, the “lowest dose where activity and/or protection was demonstrated” value ([6]; against Pseudomonas aeruginosa) was 0.5 to 1 µg/mL and the “EC50 against Pseudomonas aeruginosa” value ([6]; in vitro) was 26.5 ± 1.6 µg/mL (≈ 5.34 µM).
